Assay results as given in patent US20070037887A1, “Blockade of mtor to prevent a hormonal adaptive response” (University of Virginia Patent Foundation, priority 2003, published 2007).

What was measured:
[1] = tested on: LTED cells; assay: Apoptosis ELISA (Cell Death Detection Kit), LTED cells; assay type: cell-based, human; conditions: three day treatment
Procedure: FIG. 6 is a bar graph portraying data representing the induction of apoptosis in MCF-7 and LTED cells by FTS. Eighty thousand MCF-7 and LTED cells were plated into each well of 12-well plates in their culture media. Two days later, the cells were treated with FTS for 3 days. Apoptosis was measured using a Cell Death Detection Kit from Roche Molecular Biochemicals. Parallel plates subjected to identical treatment were prepared for cell counting. The results were expressed as the values of optical density at 405 nm per 10,000 cells.
Applicants postulated that these cells might also have become sensitized to the pro-apoptotic effects of estradiol. To test this hypothesis, an ELISA assay was used to assess apoptosis and to compare the effects of estradiol in wild-type and LTED cells. […] The presence of apoptosis in LTED cells was confirmed by the measurement of annexin V and the use of time-lapse microscopy.
The effect of a three day treatment with FTS on apoptosis in MCF-7 and LTED cells was examined using the ELISA assay for quantitation. […] LTED cells were much more sensitive than MCF-7 cells to the apoptotic effects of FTS.

[2] = tested on: ERK1/2, Akt, p70S6K, PHAS-1 phosphorylation in LTED cells; assay: EGF induced activation of MAP kinase, PI3 kinase and mTOR in LTED cells (Western); assay type: cell-based, human
From the text: FIG. 8 represents data showing the effect of FTS on EGF induced activation of MAP kinase, PI3 kinase, and mTOR in LTED cells. […] Cells were then harvested and cell lysate prepared. Phosphorylated and total kinases were detected by Western analysis using specific antibodies.
The effects of the specific growth factors, EFG and IGF-1 were also examined. Serum contains multiple growth factors that activate MAP kinase and PI3 kinase either by recruitment and activation of the common mediator Ras (such as EGF) or through a direct mechanism (such as IGF-1). To further explore the site of action of FTS, EGF-induced activation of MAPK and PI3 kinase was first examined. Specific inhibitors for PI3 kinase and mammalian target of rapamycin (mTOR) were included for comparison. […] One-hour treatment was chosen as the time point allowing most efficient comparisons among molecules.

[3] = tested on: T1, mTOR-raptor complex; assay: Coimmunoprecipitation of raptor with mTOR, compound added to cell extracts or immune complexes; assay type: binding; conditions: extracts of nontransfected cells
T1 construct: rows headed: amount of endogenous raptor that coimmunoprecipitated with mTOR; other: extracts of nontransfected cells
Procedure: 293T cells were transfected with pcDNA3 alone (Vec.) or with a combination of pcDNA3AU1-mTOR, pcDNA33HA-Raptor, and pcDNA33HA-mLST8. Extracts of the cells were incubated with increasing concentrations of FTS before AU1-mTOR was immunoprecipated. Samples of the immune complexes were incubated with [γ-^32P]ATP and recombinant [His^6]PHAS-I, then subjected to SDS-PAGE and transferred to an immobilon membrane. After obtaining a phosphorimage of the membrane to detect ^32P-PHAS-I, the membrane was immunoblotted with PThr^36/45 antibodies. Other samples of the immune complexes were subjected to SDS-PAGE and immunoblots were prepared with antibodies to the HA epitope or to mTOR (see FIG. 13A). Extracts of nontransfected 293T cells were incubated with increasing concentrations of FTS before mTOR was immunoprecipated with mTAb1. A control immunoprecipitation was conducted using nonimmune IgG (NI). Immune complexes were subjected to SDS-PAGE and immunoblots were prepared with antibodies to mLST8, mTOR, and raptor.
Samples of extracts from 293T cells overexpressing AU1-mTOR, HA-raptor, and HA-mLST8 were incubated for 1 h with increasing concentrations of FTS (●, ▴, ▪) or GTS (∘, Δ, □) before immunoprecipitations were conducted with anti-AU1 antibodies. mTOR kinase activity (●, ∘) was determined by measuring ^32P incorporation into [His^6]PHAS-I in immune complex kinases assays performed with [γ-^32P]ATP (see FIG. 14A). The relative amounts of HA-raptor (▴, Δ) and HA-mLST8 (▪, □) that coimmunoprecipitated with AU1-mTOR were determined after immunoblotting with anti-HA antibodies (see FIG. 14B). The results (mean values+S.E. from 5 experiments) are expressed as percentages of the mTOR activity (FIG. 14A) or coimmunoprecipitating proteins (FIG. 14B) from samples incubated without FTS or GTS, and have been corrected for the amounts of AU1-mTOR immunoprecipitated.
293T cells were transfected with pcDNA3 alone (Vec.) or with a combination of pcDNA3AU1-mTOR, pcDNA33HARaptor, and pcDNA33HA-mLST8. AU1-mTOR was immunoprecipitated and samples of the washed immune complexes were at incubated […] for 30 min with no inhibitors or with the following: caffeine (1 mM), FTS (50 μM), LY294002 (10 μM), rapamycin (1 μM) plus FKBP12 (10 μM), and 1 μM wortmannin. To prevent destruction of wortmannin, incubations were conducted in the absence of thiol reducing agents. Samples of the immune complexes were incubated for 10 min with 10 mM MnCl2, 1 mM [γ-^32P]ATP, and 50 μg/ml [His^6]PHAS-I to assess mTOR activity. Other samples were rinsed twice, subjected to SDS-PAGE, and immunoblotted with anti-HA and anti-AU1 antibodies to determine the amounts of HA-raptor and HA-mLST8 associated with AU1-mTOR. The relative amounts of ^32P incorporated into PHAS-I were determined by phosphorimaging (see FIG. 15B).

[4] = pretreatment FTS 1 h, LY 294002 or rapamycin 3 h, EGF 1 μg/ml 1 h

## CC(C)=CCC/C(C)=C/CC/C(C)=C/CSc1ccccc1C(=O)O [FTS, farnesylthiosalicylic acid]
[1]; FTS 75 μM
  induction of apoptosis: dramatic increase in apoptosis
[1]; FTS 20 and 50 μM
  induction of apoptosis: did not induce apoptosis
[2]; EGF or IGF-1
  growth factor induced Thr229 phosphorylation of p70 S6K: very limited, if any, inhibition
[2]; FTS even at 50 μM, EGF 1 μg/ml 1 h
  EGF-induced phosphorylation of p70S6K at Thr389: completely abolished
[2]; [4]
  EGF-induced ERK1/2 MAP kinase phosphorylation: did not inhibit
  EGF-induced phosphorylation of Akt at Ser473: neither FTS nor rapamycin blocked
[2]; serum starved 24 h, EGF
  PHAS-1 Ser65 phosphorylation: dose-dependently inhibited
[3]
  amount of endogenous raptor that coimmunoprecipitated with mTOR: decreased
